Values quoted from earlier work in patent US8759216B2, “Compositions and methods for polishing silicon nitride materials” (Cabot Microelectronics Corporation, priority 2006, dated 2014).
Like-named read-outs stand apart in the source and are kept apart here.

## OP(O)O [phosphorous, phosphorous acid]
First listed pKa value
  pKa: 2.00
Second listed pKa value
  pKa: 6.59

## O=C(O)CCCC(=O)O [glutaric]
First listed pKa value
  pKa: 4.34
Second listed pKa value
  pKa: 5.41

## O=C(O)c1ccccc1C(=O)O [phthalic, phthalic acid]
First listed pKa value
  pKa: 2.89
Second listed pKa value
  pKa: 5.51
